Laboratory results: US7425614B2, “Neuroprotective therapeutics preventing ERK/MAPK activation through the NMDA receptor” (Children's Medical Center Corporation, priority 2003, dated 2008)
Read-outs that look alike come from different tables or passages of the source. Values belong to the molecule of their own block, whether it stands above or below them.

How the values were obtained:
[1] = tested on: CREB transcription factor; experiment: phosphorylation of CREB in cultured hippocampal neurons; assay type: cell-based, rat; details: control experiments
SynGAP = experiment: phosphorylation of SynGAP in cultured hippocampal neurons; assay type: cell-based, rat; details: control experiments
ERK = experiment: phospho-ERK immunocytochemistry in cultured hippocampal neurons; assay type: cell-based, rat
Protocol: Neurons from 18 day rat embryos were dissociated using trypsin and plated on coverslips coated with poly-L-ysine in minimal essential medium (MEM) with 10% NU serum (BD Biosciences, Le Pont de Claix, France) at densities of 30,000 cells/cm^2 as described (Brewer, G. J. (1995) J. Neurosci. Res. 42, 674-683). On days 7 and 11 of culture incubation, half of the medium was changed to MEM with 2% B27 supplement (Invitrogen).
Cells were transfected with cDNA for EGFP fusion proteins (LipofectAMINE 2000; Invitrogen) or by pseudoviral infection using a Sindbis expression system (Invitrogen). Neurons were incubated with cDNA and LipofectAMINE for 2 hr, rinsed, and incubated with culture media (MEM with 2% of B27 supplement) 17 hr prior to the experiment. For viral delivery, neuronal cultures were incubated 30 min with pseudoviral constructs diluted 200-500× in culture media. Cultures were rinsed and incubated in media for 15 hr. 0.1% to 1.5% of neurons were fluorescent after expressing LipofectAMINE-delivered constructs while Sindbis infection yielded 1%-10% transfection efficiency. Most of the experiments were performed on 12-14 days in vitro (div) cultures unless otherwise indicated.
Three hours before stimulation, TTX (1 μM), CNQX (40 μM), APV (100 μM), and nimodipine (5 μM) were added to neurons. For stimulation, coverslips with neurons were transferred into the following solutions.
(1) 100 μM NMDA, 10 μM glycine, 1 μM TTX, 40 μM CNQX, 5 μM nimodipine dissolved in culture media and incubated for 3 min. […]
After stimulation, neurons were fixed with 4% formaldehyde and labeled with rabbit anti-phospho-p44/42 ERK antibody (Cell Signaling) and with mouse anti-MAP2 antibody (Sternberger Monoclonals). Cy3-conjugated goat anti-rabbit IgG and Cy5-conjugated goat antimouse IgG (Jackson Immunoresearch Laboratories, West Grove, Pa.) were secondary antibodies. NMDA and all antagonists were from Tocris Neuramin. BDNF was from Calbiochem. Images were acquired with an Olympus Fluoview-500 confocal microscope (40×; 1.0 NA) and quantified using Olympus Fluoview software. In each experiment, the pERK fluorescence of the cell soma was measured for 25 neurons taken from consecutive fields. Phospho-ERK fluorescence data were normalized to the values obtained in nontransfected cells after NMDA stimulation. The background fluorescence (mean fluorescence of nonstimulated neurons) was subtracted prior to normalization.

NMDA receptor = experiment: whole-cell recordings of NMDAR-mediated currents in cultured hippocampal neurons; assay type: cell-based, rat
NMDA receptors = details: cited from earlier work
NR2A = molecular target: T1, NR2A (Rattus norvegicus, UniProt Q00959); details: 3 μM; heterologous expression systems; cited from earlier work
T1 construct: host or cells: heterologous expression systems (not specified)

NR2B = molecular target: T2, NR2B (Rattus norvegicus, UniProt P35439+Q00960); details: 3 μM; heterologous expression systems; cited from earlier work
T2 construct: host or cells: heterologous expression systems (not specified)

full-length NR2B = molecular target: T3, full-length NR2B (Rattus norvegicus, UniProt Q00960); experiment: in vitro binding of in vitro translated HA-tagged RasGRF1 fragments to full-length NR2B (co-immunoprecipitation); details: epitope-tagged RasGRF1 fragments
T3 construct: In vitro translated full-length NR2B and HA-tagged RasGRF1 fragments were co-immunoprecipitated with anti-HA antibody; made in house; host or cells: cell-free in vitro translation (35S-labelled)
Text: For in vitro translation, fragments of rat NR2B and rat RasGRF1 were made by PCR with 5′-primers containing AU1- and HA-tag encoding sequences; amplified sequences were subcloned into pcDNA3.1. For 293T transfection, the following cDNAs were used: mouse RasGRF1 in pcDNA3, GFP-rat NR2B, GFP rat NR2A in pcDNA1.1, and rat NR1 in pEGFP-C1 (Clontech). EGFP fusion constructs were made by subcloning cDNA fragments encoding different portions of NR2B and RasGRF1 into pEGFP-C1 (Clontech). EGFP fusion constructs were transferred from pEGFP into pSinRep5 and used for preparation of the Sindbis pseudovirus gene transfer system according to the manufacturer's protocol (Invitrogen, Carlsbad, Calif.).
For in vitro binding experiments, equimolar amounts of in vitro translated ^35S-labeled proteins (calculated from radioactivity of the excised protein band and cysteine content in the specific fragment) were incubated with a 3-fold molar excess of translated RasGRF1 for 30 min at 30° C., diluted with RIPA buffer, and immunoprecipitated with anti-HA-agarose (Santa Cruz). In competition experiments, RasGRF1 and NR2B were immunoprecipitated for 2 hr at 4° C. from solubilized rat brain microsomes in the presence of 10 μM NusA, 10 μM NusA-RasGRF1-BD, or 5 μM NusA-NR2B-BD.

T3 sequence (Q00960 27-1482 E1256K/V1430S/T1431A): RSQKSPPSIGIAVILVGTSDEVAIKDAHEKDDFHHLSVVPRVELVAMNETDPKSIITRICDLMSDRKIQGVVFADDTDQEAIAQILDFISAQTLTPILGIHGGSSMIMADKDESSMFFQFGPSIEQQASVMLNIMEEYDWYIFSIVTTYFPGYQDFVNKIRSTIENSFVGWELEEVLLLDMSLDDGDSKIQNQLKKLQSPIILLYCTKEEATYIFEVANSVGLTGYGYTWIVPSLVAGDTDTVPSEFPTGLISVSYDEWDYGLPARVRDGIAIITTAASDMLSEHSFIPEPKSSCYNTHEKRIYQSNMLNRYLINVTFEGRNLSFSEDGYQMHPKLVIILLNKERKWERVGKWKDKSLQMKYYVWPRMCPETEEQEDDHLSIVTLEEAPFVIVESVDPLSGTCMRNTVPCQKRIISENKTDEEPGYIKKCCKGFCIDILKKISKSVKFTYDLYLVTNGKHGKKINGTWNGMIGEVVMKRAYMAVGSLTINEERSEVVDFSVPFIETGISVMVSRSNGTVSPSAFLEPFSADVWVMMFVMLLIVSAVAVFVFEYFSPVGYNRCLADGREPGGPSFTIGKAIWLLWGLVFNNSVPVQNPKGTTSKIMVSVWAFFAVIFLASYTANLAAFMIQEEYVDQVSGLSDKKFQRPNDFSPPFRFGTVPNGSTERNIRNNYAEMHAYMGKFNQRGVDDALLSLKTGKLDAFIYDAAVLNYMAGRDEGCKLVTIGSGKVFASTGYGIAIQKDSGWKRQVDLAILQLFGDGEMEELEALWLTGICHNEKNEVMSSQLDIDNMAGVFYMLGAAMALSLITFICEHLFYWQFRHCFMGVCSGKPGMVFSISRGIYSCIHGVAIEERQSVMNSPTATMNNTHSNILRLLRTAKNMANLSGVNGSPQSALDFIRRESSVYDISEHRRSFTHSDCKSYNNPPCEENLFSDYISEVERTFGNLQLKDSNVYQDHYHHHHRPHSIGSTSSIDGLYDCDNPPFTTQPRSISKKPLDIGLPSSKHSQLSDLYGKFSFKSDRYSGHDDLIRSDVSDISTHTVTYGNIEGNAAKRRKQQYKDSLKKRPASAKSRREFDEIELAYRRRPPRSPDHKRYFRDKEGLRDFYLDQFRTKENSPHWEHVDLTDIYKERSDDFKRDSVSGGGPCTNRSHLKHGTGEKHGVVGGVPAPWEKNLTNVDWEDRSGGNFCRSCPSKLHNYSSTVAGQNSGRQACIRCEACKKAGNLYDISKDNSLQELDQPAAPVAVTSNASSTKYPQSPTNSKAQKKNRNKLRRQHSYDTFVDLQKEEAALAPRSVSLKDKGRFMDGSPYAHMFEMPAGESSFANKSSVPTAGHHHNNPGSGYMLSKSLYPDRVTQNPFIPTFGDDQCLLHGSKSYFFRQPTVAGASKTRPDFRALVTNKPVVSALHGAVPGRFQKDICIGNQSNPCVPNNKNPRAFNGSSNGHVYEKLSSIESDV
T2 sequence (Q00960 27-1482, other chains not shown): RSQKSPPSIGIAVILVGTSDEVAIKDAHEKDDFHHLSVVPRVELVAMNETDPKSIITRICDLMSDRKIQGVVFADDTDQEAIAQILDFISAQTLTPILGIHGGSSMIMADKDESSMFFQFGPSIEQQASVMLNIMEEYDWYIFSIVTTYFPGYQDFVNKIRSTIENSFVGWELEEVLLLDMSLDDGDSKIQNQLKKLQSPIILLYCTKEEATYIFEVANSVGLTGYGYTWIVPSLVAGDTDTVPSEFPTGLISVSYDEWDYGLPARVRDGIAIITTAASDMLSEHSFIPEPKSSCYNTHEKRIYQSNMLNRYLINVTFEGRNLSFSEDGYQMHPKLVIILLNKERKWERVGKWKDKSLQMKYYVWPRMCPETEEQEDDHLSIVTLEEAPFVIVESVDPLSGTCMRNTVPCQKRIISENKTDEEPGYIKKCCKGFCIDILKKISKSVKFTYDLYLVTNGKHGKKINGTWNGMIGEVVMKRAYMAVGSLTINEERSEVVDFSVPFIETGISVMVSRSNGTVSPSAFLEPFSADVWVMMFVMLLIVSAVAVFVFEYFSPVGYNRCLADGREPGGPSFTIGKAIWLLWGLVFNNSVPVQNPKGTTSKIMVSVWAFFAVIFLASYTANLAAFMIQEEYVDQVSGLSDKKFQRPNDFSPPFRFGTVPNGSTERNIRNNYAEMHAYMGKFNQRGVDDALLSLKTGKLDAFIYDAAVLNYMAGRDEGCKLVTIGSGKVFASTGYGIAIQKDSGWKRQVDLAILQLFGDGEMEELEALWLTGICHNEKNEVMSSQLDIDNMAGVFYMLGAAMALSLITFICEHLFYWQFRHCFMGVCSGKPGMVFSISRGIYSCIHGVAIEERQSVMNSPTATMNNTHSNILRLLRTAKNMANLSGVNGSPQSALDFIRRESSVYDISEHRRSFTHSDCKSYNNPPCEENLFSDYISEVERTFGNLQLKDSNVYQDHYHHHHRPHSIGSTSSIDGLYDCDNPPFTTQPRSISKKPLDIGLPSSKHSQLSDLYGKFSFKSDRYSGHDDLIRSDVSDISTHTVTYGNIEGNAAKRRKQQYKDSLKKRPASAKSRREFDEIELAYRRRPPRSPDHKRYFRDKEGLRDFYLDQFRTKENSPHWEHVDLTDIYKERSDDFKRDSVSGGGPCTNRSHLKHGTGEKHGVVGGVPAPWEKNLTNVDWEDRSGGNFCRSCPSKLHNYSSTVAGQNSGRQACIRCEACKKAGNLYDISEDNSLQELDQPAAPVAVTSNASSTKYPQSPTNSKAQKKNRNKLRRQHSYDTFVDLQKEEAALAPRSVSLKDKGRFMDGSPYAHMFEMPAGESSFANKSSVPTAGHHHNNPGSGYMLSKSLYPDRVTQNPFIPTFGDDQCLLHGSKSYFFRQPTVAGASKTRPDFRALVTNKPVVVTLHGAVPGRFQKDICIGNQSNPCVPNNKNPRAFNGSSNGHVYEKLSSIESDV
T1 sequence (Q00959 23-1464): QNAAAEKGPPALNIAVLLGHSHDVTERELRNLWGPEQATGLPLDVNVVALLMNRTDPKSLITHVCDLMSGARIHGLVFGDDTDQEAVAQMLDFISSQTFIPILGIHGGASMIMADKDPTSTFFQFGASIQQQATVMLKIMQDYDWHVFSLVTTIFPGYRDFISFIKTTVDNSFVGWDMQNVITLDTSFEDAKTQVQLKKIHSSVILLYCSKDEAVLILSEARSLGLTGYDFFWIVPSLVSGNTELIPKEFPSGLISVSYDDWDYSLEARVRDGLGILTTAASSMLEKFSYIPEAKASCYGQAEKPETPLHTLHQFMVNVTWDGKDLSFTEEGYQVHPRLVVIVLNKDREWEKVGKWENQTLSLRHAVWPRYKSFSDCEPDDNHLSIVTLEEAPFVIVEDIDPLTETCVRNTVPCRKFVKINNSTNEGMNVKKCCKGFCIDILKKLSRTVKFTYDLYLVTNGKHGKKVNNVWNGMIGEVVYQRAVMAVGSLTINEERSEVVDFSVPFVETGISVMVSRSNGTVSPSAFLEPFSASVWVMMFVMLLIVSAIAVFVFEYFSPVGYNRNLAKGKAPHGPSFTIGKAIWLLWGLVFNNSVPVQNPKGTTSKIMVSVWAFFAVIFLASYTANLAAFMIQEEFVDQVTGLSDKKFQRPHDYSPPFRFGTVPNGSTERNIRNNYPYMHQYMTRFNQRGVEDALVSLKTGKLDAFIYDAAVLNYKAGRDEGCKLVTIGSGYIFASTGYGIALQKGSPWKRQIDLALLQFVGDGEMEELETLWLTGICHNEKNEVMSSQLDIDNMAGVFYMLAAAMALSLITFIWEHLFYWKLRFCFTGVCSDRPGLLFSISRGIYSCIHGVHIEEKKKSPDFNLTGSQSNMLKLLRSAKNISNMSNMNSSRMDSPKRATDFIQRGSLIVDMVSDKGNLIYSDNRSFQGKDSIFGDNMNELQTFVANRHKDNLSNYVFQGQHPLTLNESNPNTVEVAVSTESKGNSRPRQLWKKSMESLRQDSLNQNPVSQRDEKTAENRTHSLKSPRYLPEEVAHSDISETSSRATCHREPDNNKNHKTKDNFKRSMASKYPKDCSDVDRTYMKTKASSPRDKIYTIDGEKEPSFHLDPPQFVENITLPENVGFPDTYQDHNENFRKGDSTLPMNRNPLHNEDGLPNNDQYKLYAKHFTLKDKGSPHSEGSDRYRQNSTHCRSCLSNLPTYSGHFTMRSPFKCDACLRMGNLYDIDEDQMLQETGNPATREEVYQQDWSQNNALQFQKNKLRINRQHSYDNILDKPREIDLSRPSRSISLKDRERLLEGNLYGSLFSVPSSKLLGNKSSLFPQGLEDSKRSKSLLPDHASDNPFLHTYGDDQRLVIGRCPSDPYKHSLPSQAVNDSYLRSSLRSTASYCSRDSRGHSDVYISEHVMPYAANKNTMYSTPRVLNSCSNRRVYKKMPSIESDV

binding to NR2B in vitro (full-length NR2B): did not bind
B1: RasGRF1 amino acids 714-841: shorter peptide of the RasGRF1-specific sequence (protein, UniProt Q13972 714-841, looked up, fragment)
chain: FASGQNNKLLYGEPPKSPRATRKFSSPPPLSITKTSSPSRRRKLSLNIPIITGGKALDLAALSCNSNGYTSMYSAMSPFSKATLDTSKLYVSSSFTNKIPDEGDTTPEKPEDPSALSKQSSEVSMREE

binding to NR2B in vitro (full-length NR2B): bound
B4: RasGRF1 amino acids 714-1244: C-terminal prey-containing sequence of RasGRF1 (protein, UniProt Q13972 714-1244, looked up, fragment)
chain: FASGQNNKLLYGEPPKSPRATRKFSSPPPLSITKTSSPSRRRKLSLNIPIITGGKALDLAALSCNSNGYTSMYSAMSPFSKATLDTSKLYVSSSFTNKIPDEGDTTPEKPEDPSALSKQSSEVSMREESDIDQNQSDDGDTETSPTKSPTTPKSVKNKNSSEFPLFSYNNGVVMTSCRELDNNRSALSAASAFAIATAGANEGTPNKEKYRRMSLASAGFPPDQRNGDKEFVIRRAATNRVLNVLRHWVSKHSQDFETNDELKCKVIGFLEEVMHDPELLTQERKAAANIIRTLTQEDPGDNQITLEEITQMAEGVKAEPFENHSALEIAEQLTLLDHLVFKKIPYEEFFGQGWMKLEKNERTPYIMKTTKHFNDISNLIASEIIRNEDINARVSAIEKWVAVADICRCLHNYNAVLEITSSMNRSAIFRLKKTWLKVSKQTKALIDKLQKLVSSEGRFKNLREALKNCDPPCVPYLGMYLTDLAFIEEGTPNYTEDGLVNFSKMRMISHIIREIRQFQQTAYKIEHQAKV

More lines, now with the values behind:

Molecule: COc1ccc(S(=O)(=O)N(CCO)c2ccccc2CN(C)C/C=C/c2ccc(Cl)cc2)cc1 [KN-93]
phosphorylation of CREB [1]: effectively suppressed | phosphorylation of SynGAP (SynGAP): effectively suppressed | NMDA-dependent ERK activation (ERK; 5 μM in the incubation media): had no effect | bicuculline-induced ERK activation (ERK; cultured hippocampal neurons, 10 μM bicuculline): altered neither | NMDA-induced (NMDAR-dependent) ERK activation (ERK; cultured hippocampal neurons, 100 μM NMDA): altered neither

Molecule: CC(C(O)c1ccc(O)cc1)N1CCC(Cc2ccccc2)CC1 (stereo not drawn) [ifenprodil]
decrease of the portion of the ifenprodil-sensitive NMDA current with days in culture (NMDA receptor): ~25% | frequency of spontaneous NMDAR EPSCs (NMDA receptor): significantly reduced | suppression of NMDAR current (NMDA receptor): 60% | inhibition of NMDA-mediated current (NMDA receptors; 3-week-old cultures): 20%-30 | inhibition of NMDA-mediated current (NMDA receptors; young neuronal cultures): ~70% | effect on NR2A-mediated current (NR2A): has no effect | inhibition of NR2B-mediated current (NR2B): up to 80% | inhibition at 3 µM (ERK; Rattus norvegicus, Hippocampal neuron, 3 μM, hippocampal neurons 8 div, read-out: inhibition of NMDAR activated ERK): 70% | degree of ifenprodil-sensitive ERK activation with days in culture (ERK; during neuron maturation): did not change significantly

B2: RasGRF1 amino acids 835-913: shorter peptide of the RasGRF1-specific sequence (protein, UniProt Q13972 835-913, looked up, fragment)
chain: EVSMREESDIDQNQSDDGDTETSPTKSPTTPKSVKNKNSSEFPLFSYNNGVVMTSCRELDNNRSALSAASAFAIATAGA
binding to NR2B in vitro (full-length NR2B): did not bind

B3: RasGRF1 amino acids 1-720: N-terminal portion of RasGRF1, which contains multiple functional domains (protein, UniProt Q13972 1-720, looked up, fragment)
chain: MQKGIRLNDGHVASLGLLARKDGTRKGYLSKRSSDNTKWQTKWFALLQNLLFYFESDSSSRPSGLYLLEGCVCDRAPSPKPALSAKEPLEKQHYFTVNFSHENQKALELRTEDAKDCDEWVAAIAHASYRTLATEHEALMQKYLHLLQIVETEKTVAKQLRQQIEDGEIEIERLKAEITSLLKDNERIQSTQTVAPNDEDSDIKKIKKVQSFLRGWLCRRKWKTIIQDYIRSPHADSMRKRNQVVFSMLEAEAEYVQQLHILVNNFLRPLRMAASSKKPPITHDDVSSIFLNSETIMFLHQIFYQGLKARISSWPTLVLADLFDILLPMLNIYQEFVRNHQYSLQILAHCKQNRDFDKLLKHYEAKPDCEERTLETFLTYPMFQIPRYILTLHELLAHTPHEHVERNSLDYAKSKLEELSRIMHDEVSETENIRKNLAIERMIIEGCEILLDTSQTFVRQGSLIQVPMSEKGKITRGRLGSLSLKKEGERQCFLFSKHLIICTRGSGGKLHLTKNGVISLIDCTLLEEPESTEEEAKGSGQDIDHLDFKIGVEPKDSPPFTVILVASSRQEKAAWTSDISQCVDNIRCNGLMMNAFEENSKVTVPQMIKRTREGTREAEMSRSDASLYCDDVDIRFSKTMNSCKVLQIRYASVERLLERLTDLRFLSIDFLNTFLHSYRVFTTAIVVLDKLITIYKKPISAIPARWLRSLELLFASGQNN
binding to NR2B in vitro (full-length NR2B): did not bind
